Test results reported in patent publication US10179761B2, “Compounds, pharmaceutical composition and their use in treating neurodegenerative diseases” (UNIVERSITE DE LILLE 2 DROIT ET SANTE, priority 2014, dated 2019).
Several values for one entry are separate records, joined by “and”; a condition that tells them apart may be missing. Identical values can stand only once. Like-named read-outs stand apart in the source and are kept apart here.

How the values were obtained:
σ1 receptors [1] = biological target: T1, σ1 receptors (Homo sapiens (Human), UniProt Q99720); assay: σ1 binding assay, Jurkat cell membranes, [3H](+)-pentazocine; conditions: selectivity, Ki sigma 2 / Ki sigma 1
T1 sequence (Q99720 whole entry): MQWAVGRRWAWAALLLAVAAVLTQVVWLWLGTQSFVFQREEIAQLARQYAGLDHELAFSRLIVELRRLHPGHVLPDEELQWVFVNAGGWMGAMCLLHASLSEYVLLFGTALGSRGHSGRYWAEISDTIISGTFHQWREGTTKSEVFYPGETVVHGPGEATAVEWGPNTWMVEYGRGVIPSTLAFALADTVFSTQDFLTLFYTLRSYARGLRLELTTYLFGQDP
Protocol: (§1) The σ binding assays were performed according to Ganapathy et al. (Ganapathy, M. E.; Prasad, P. D.; Huang, W.; Seth, P.; Leibach, F. H.; Ganapathy, V. Molecular and ligand-binding characterization of the sigma-receptor in the Jurkat human T lymphocyte cell line. J. Pharmacol. Exp. Ther. 1999, 289, 251-260). […] The σ2 binding assay was performed by incubating Jurkat cell membranes ([…] protein per tube) with [^3H]-DTG (25 nM) in presence of (+)-pentazocine (1 μM) to saturate σ1 receptors, and a range of concentrations of tested compounds, at room temperature for 1 hour in 5 mM Tris/HCl buffer (pH=7.4). The final assay volume was 0.5 mL. Binding was terminated by rapid filtration through Wathman GF/B filters, which were then washed with 5×1 mL ice-cold NaCl solution and allowed to dry before bound radioactivity was measured using liquid scintillation counting. Nonspecific binding was determined, in both assays, under similar conditions, but in presence of 10 μM unlabeled haloperidol. Inhibition constants (Ki) were calculated from the IC50 values according to the method of Cheng and Prusoff (Cheng, Y.; Prusoff, W. H. Relationship between the inhibition constant (Ki) and the concentration of inhibitor which causes 50 percent inhibition (IC50) of an enzymatic reaction. Biochem Pharmacol. 1973, 22 (23), 3099-108): […]

σ2 receptors = σ2 receptors (Homo sapiens (Human), UniProt Q5BJF2); assay: σ2 binding assay, Jurkat cell membranes, [3H]-DTG in presence of (+)-pentazocine; conditions: read-out: Sigma 2 Ki
Sequence of σ2 receptors (Q5BJF2 whole entry): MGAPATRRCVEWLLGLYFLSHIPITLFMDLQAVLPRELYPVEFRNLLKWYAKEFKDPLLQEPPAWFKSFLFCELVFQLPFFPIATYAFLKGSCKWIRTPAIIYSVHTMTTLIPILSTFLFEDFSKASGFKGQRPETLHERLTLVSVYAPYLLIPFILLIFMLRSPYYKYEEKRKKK
Protocol: as §1

σ1 receptors [2] = biological target: T1, σ1 receptors; assay: σ1 binding assay, Jurkat cell membranes, [3H](+)-pentazocine; conditions: hydrochloride salts; mean of 2 or 3 independent experiments; Ki from IC50 (Cheng-Prusoff); read-out: Sigma 1 Ki
Male Swiss mice [3] = assay: Dizocilpine-induced learning deficits: spontaneous alternation in the Y-maze; type: in vivo; conditions: NE-100 3 mg/kg + dizocilpine 0.15 mg/kg i.p.
Protocol: (§2) The activity of compound 3.1.10 was evaluated on the prevention of the dizocilpine-induced learning deficits measured using two behavioral tests. The present experiment tested if its anti-amnesic activity could be blocked by pretreatment with the reference sigma-1 receptor antagonist NE-100.
(§3) • Sixty (60) mice were used. Behavioral testing started one week after the arrival of the animals in the AMYLGEN animal facility. • 5 treatment groups were designed and used as follows:
(§4) • Vehicle 1 was physiological saline for dizocilpine, DMSO 2% in water for compound 3.1.10 • Animals were used at day 1 in the Y-maze test and at days 2 and 3 in the passive avoidance test, with training at day 2 and retention at day 3. • Test compounds, compound 3.1.10 and/or NE-100 were administered 10 min before dizocilpine (at 0.15 mg/kg i.p.) or vehicle. • Dizocilpine or vehicle 1 was administered 20 min before the Y-maze test session on day 1. • Dizocilpine or vehicle 1 was administered 20 min before the passive avoidance training session on day 2. Drugs were not injected before the retention session on day 3. • The whole experiment program was performed in a single serie experiment. • Treatments were randomized. 2.1.2. Animals
Male Swiss mice, 6 weeks old and weighing 30-35 g, from JANVIER (Saint Berthevin, France), were housed in groups with access to food and water ad libitum, except during experiments. They were kept in a temperature and humidity controlled animal facility on a 12 h/12 h light:dark cycle (lights on at 7:00 am). […]
Animals were tested for spontaneous alternation performance in the Y-maze, an index of spatial working memory. […] The number of maximum alternations was therefore the total number of arm entries minus two and the percentage of alternation was calculated as: (actual alternations/maximum alternations)×100. […]
All values, except passive avoidance latencies, were expressed as mean±S.E.M. Statistical analyses were performed using two-way ANOVA (F value), with genotype and peptide treatment as independent factors, followed by a Dunn's post-hoc multiple comparison test.

Male Swiss mice [4] = assay: Dizocilpine-induced learning deficits: step-through passive avoidance test; type: in vivo; conditions: NE-100 3 mg/kg + dizocilpine 0.15 mg/kg i.p.
Protocol: as §2, §3, §4
Male Swiss mice, 6 weeks old and weighing 30-35 g, from JANVIER (Saint Berthevin, France), were housed in groups with access to food and water ad libitum, except during experiments. […]
The apparatus is a two-compartments (15×20×15 cm high) box with one illuminated with white polyvinylchloride walls and the other darkened with black polyvinylchloride walls and a grid floor. […] The step-through latency (the latency spent to enter the dark compartment) and the number of vocalizations was recorded. […] The step-through latency was recorded up to 300 s. When the mouse entered the dark compartment or 300 s has elapsed (they were therefore manually placed in it), the escape latency (latency to exit from the dark compartment) was recorded up to 300 s.
They were therefore analyzed using a Kruskal-Wallis non-parametric ANOVA (H value), followed by a Dunn's multiple comparison test.

[5] = hydrochloride salts, mean of 2 or 3 independent experiments, Ki from IC50 (Cheng-Prusoff)

Structure (SMILES) | Ratio σ2/σ1 (σ1 receptors [1]) | Ki (σ2 receptors; [5]) | Ki (σ1 receptors [2]) | Ki (σ2 receptors) | effect of NE-100 by itself on dizocilpine-induced deficits, Y-maze test (Male Swiss mice [3]) | effect of NE-100 by itself on dizocilpine-induced deficits, passive avoidance test (Male Swiss mice [4])
CN(CCCNC(=O)c1ccc(F)cc1)Cc1ccccc1 [Compound 3.1.6, N-[3-(benzylmethylamino)propyl]-4-fluorobenzamide] | 24 | 470 nM | 20 nM | – | – | –
CN(CCCNC(=O)c1cccc(Cl)c1)Cc1ccccc1 [Compound 3.1.8, N-[3-(benzylmethylamino)propyl]-3-chlorobenzamide] | 34 | 340 nM | 10 nM | – | – | –
CN(CCNC(=O)c1ccc(Cl)cc1)Cc1ccccc1 [Compound 3.1.9, N-[3-(2-(N-methylbenzyl)amino)ethyl]-4-chlorobenzamide] | – | 850 nM | – | – | – | –
CN(CCCNC(=O)c1ccc(Cl)cc1)CCc1ccccc1 [Compound 3.1.12, N-[3-(N-methyl-2-phenylethylamino)propyl]-4-chlorobenzamide] | 47 | 200 nM | 4.3 nM | – | – | –
CN(CCCNC(=O)c1cc(Cl)cc(Cl)c1)Cc1ccccc1 [Compound 3.1.26, N-[3-(benzylmethylamino)propyl]-3,5-dichlorobenzamide] | 2 | 48 nM | 23 nM | – | – | –
CN(CCNC(=O)c1ccc(C#N)cc1)Cc1ccccc1 [Compound 3.1.36, N-(2-(benzyl(methyl)amino)ethyl)-4-cyanobenzamide] | – | 170 nM | 1.2 nM | – | – | –
CN(CCC(=O)NCc1ccc(Cl)cc1)Cc1ccccc1 [Compound 3.4a, N-(4-chlorobenzyl)-3-(benzylmethylamino)propanamide] | 241 | – | 1.7 nM | 410 nM | – | –
CN(CCC(=O)NCc1ccc([N+](=O)[O-])cc1)Cc1ccccc1 [Compound 3.4b, N-(4-Nitrobenzyl)-3-(benzylmethylamino)propanamide] | – | – | 1.3 to 3.6 nM and 2.3 nM | 6500 nM | – | –
CN(CCC(=O)NCc1ccc(C#N)cc1)Cc1ccccc1 [Compound 3.4c, N-(4-Cyanobenzyl)-3-(benzylmethylamino)propanamide] | 321 | – | 5.6 nM | 1800 nM | – | –
CN(CCC(=O)NCc1ccc(Cl)cc1Cl)Cc1ccccc1 [Compound 3.4d, N-(2,4-Dichlorobenzyl)-3-(benzylmethylamino)propanamide] | 52 | – | 2.3 nM | 120 nM | – | –
CCCN(CCC)CCc1ccc(OC)c(OCCc2ccccc2)c1.Cl [NE-100, reference compound] | – | – | – | – | devoid of effect by itself | devoid of effect by itself

Now from value to molecule, other results behind:

Ratio σ2/σ1 (σ1 receptors [1]) | Ki (σ2 receptors; [5]) | Ki (σ1 receptors [2]) | Ki (σ2 receptors) | Structure (SMILES) | effect of NE-100 by itself on dizocilpine-induced deficits, Y-maze test (Male Swiss mice [3]) | effect of NE-100 by itself on dizocilpine-induced deficits, passive avoidance test (Male Swiss mice [4])
– | – | 19 nM | – | O=C(NCCCNCN1Cc2ccccc2C1)c1ccc(Cl)cc1 [Compound 3.1.15] | – | –
90 | 350 nM | 3.9 nM | – | CN(CCCNC(=O)c1cccc(Br)c1)Cc1ccccc1 [Compound 3.1.21, N-[3-(benzylmethylamino)propyl]-3-bromobenzamide] | – | –
238 | 310 nM | 1.3 to 3.6 nM and 1.3 nM | – | CN(CCCNC(=O)c1ccc(Cl)cc1Cl)Cc1ccccc1 [Compound 3.1.24, N-[3-(benzylmethylamino)propyl]-2,4-dichlorobenzamide] | – | –
– | – | 2.9 nM | – | CN(CCCNC(=O)c1ccc(Br)cc1F)Cc1ccccc1 [Compound 3.1.27, N-[3-(benzylmethylamino)propyl]-4-bromo-2-fluorobenzamide] | – | –
17 | 110 nM | 6.5 nM | – | CN(CCNC(=O)c1ccc(Cl)cc1Cl)Cc1ccccc1 [Compound 3.1.34, N-(2-(benzyl(methyl)amino)ethyl)-2,4-dichlorobenzamide] | – | –
– | 1400 nM | 3.6 nM | – | CN(CCNC(=O)c1ccc([N+](=O)[O-])cc1)Cc1ccccc1 [Compound 3.1.37, N-(2-(benzyl(methyl)amino)ethyl)-4-nitrobenzamide] | – | –
317 | – | 0.63 nM | 200 nM | CN(CCC(=O)NCc1cccc(Cl)c1)Cc1ccccc1 [Compound 3.4e, N-(3-Chlorobenzyl)-3-(benzylmethylamino)propanamide] | – | –
